A short description of test [1]: Inhibition of RIPK1 in human FADD-deficient Jurkat I 2.1 cells assessed as protection against TNFalpha-induced necroptosis measured after 24 hrs by MTS assay. A general note: Formazan colour is commonly taken as a measure of viable cells.
A short description of test [2]: Inhibition of RIPK1 in human FADD-deficient Jurkat I 2.1 cells assessed as reduction in TNFalpha-induced necroptosis measured after 24 hrs by MTS assay.

Molecules are shown by their SMILES. pEC50: −log10 of the molar value.

What is called pEC50 is the negative decadic logarithm of the EC50, by convention in mol/L. Consider `CCCCNc1nc2cc([N+](=O)[O-])ccc2s1`, for which, in test [1], the negative logarithm of the EC50 (pEC50) is 5.33. The same measure, in the same setting: for `COC(=O)c1cccc2nc(NC3CCCCC3)[nH]c12` the value was 5.05; for `CCCNc1nc2ccc([N+](=O)[O-])cc2[nH]1`, 4.84; for `CCCCNc1nc2cccc(C(=O)OC)c2[nH]1`, 4.74. The same measure, in the same setting: the figure for `CC(C)Nc1nc2ccc([N+](=O)[O-])cc2[nH]1` is less than 4.60; for `CCCCNc1nc2ccc([N+](=O)[O-])cc2s1` it is 5.16. On the same count and under the same terms, the figure for `Clc1ccc2nc(NC3CCCCC3)[nH]c2c1` is 5.36; for `O=[N+]([O-])c1ccc2nc(NC3CCCCC3)[nH]c2c1` it is 5.98. Turning to `CCCCNc1nc2ccc([N+](=O)[O-])cc2[nH]1`, the negative-log EC50 (pEC50) in test [2] and in test [1] was 5.77 throughout. As for `O=[N+]([O-])c1ccc2nc(Nc3ccccc3)[nH]c2c1`, the negative-log EC50 (pEC50) in test [1] was 5.60.

Values taken from BindingDB's records for doi:10.1016/j.ejmech.2020.112337 (Paris-Saclay University, 2020).
